Reference: patent US9315503B2, “Kinase inhibitors” (CHIESI FARMACEUTICI S.p.A., priority 2011, dated 2016)
Counter-ions that a name gives are not always drawn.

How the values were obtained:
[1] = tested on: LPS-stimulated TNFα release from PBMCs; assay: LPS-stimulated PBMC TNFα release assay; type: cell-based; conditions: inhibition of TNFα release, human PBMCs, LPS 10 ng/ml, 18 h, ELISA, read-out: p38α inhibition (IC50 values)
Method: LPS-Stimulated PBMC TNFα Release Assay.
Peripheral Blood Mononuclear Cells (PBMCs) were isolated from healthy human volunteer blood using a standard density gradient centrifugation technique. Citrated blood was placed onto Histopaque™ and centrifuged. The PBMCs were removed from the density gradient interface and washed in phosphate buffered saline (PBS). The PBMCs were suspended in RPMI 1640 medium (without serum), dispensed into a 96-well plate and incubated at 37° C. for 3 h in a humidified incubator. After incubation, the medium was replaced (with medium containing 1% foetal bovine serum) and the plate incubated at 37° C., for 1 h, in the presence of test compound or the appropriate vehicle. LPS (10 ng/ml), or an appropriate vehicle control, was then added to the cells and the plate returned to the incubator for 18 h. Cell-free supernatants were removed and assayed for TNFα levels using an ELISA kit from R&D Systems.
A dose response curve to each test compound was performed and the effect of compound in each experiment was expressed as a percentage inhibition of the control TNFα release. Dose response curves were plotted and compound potency (IC50) was determined. Compounds were tested in at least three separate experiments.

p38alpha = target: T1, p38alpha (Homo sapiens, UniProt Q16539); assay: P38Alpha enzyme inhibition assay (Alphascreen kinase activity assay); type: biochemical; conditions: 100 pM p38alpha, 250 μM ATP, 2 hours pre-incubation at 25° C., read-out: p38α inhibition (IC50 values)
T1 construct: purchased Invitrogen PV3304
T1 sequence (Q16539 whole entry): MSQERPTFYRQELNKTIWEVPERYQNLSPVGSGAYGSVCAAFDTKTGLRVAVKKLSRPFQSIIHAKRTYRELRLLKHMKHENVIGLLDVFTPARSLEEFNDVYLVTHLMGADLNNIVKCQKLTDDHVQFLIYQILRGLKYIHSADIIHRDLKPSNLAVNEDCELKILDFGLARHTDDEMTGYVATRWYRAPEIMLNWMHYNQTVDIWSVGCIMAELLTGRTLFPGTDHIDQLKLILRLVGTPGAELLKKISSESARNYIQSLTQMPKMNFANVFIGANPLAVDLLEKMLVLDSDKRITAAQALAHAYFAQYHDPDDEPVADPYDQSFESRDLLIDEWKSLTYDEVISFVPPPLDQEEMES
Summary of the method: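 p38α (100 pM) with ATF-2 fusion protein substrate (0.3 µg/ml) in pH 7.5 HEPES/MgCl2 buffer, 1% DMSO, preincubated 2 h at 25°C with compound. Reaction started with 250 µM ATP, ran 1 h at 25°C, then stopped with EDTA. Phospho-ATF2 antibody detected by AlphaScreen luminescence; IC50 from concentration-response curves.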

Compound | IC50 (p38alpha) [nM] | IC50 [1] [nM]
CN1CCN(Cc2cccc(-n3nc(C(C)(C)C)cc3NC(=O)N[C@H]3CC[C@@H](Oc4ccc5nnc(N6CCCCC6)n5c4)c4ccccc43)c2)CC1 [Example 41, 1-{5-tert-Butyl-2-[3-(4-methyl-piperazin-1-ylmethyl)-phenyl]-2H-pyrazol-3-yl}-3-[(1S,4R)-4-(3-piperidin-1-yl-[1,2,4]triazolo[4,3-a]pyridin-6-yloxy)-1,2,3,4-tetrahydro-naphthalen-1-yl]-urea] | < 10 | < 10
C[C@@H]1CCCCN1c1nnc2ccc(O[C@@H]3CC[C@H](NC(=O)Nc4cc(C(C)(C)C)nn4-c4cccc(OCCN(C)C)c4)c4ccccc43)cn12 [Example 123, 1-{5-tert-Butyl-2-[3-(2-dimethylamino-ethoxy)-phenyl]-2H-pyrazol-3-yl}-3-{(1S,4R)-4-[3-((R)-2-methyl-piperidin-1-yl)-[1,2,4]triazolo[4,3-a]pyridin-6-yloxy]-1,2,3,4-tetrahydro-naphthalen-1-yl}-urea partial formate salt] | < 10 | < 10
Cn1cc(-n2nc(C(C)(C)C)cc2NC(=O)N[C@H]2CC[C@@H](Oc3ccc4nnc(N5CCCCC5)n4c3)c3ccccc32)cn1 [Example 107, 1-(3-tert-Butyl-1′-methyl-1′H-[1,4′]bipyrazolyl-5-yl)-3-[(1S,4R)-4-(3-piperidin-1-yl-[1,2,4]triazolo[4,3-a]pyridin-6-yloxy)-1,2,3,4-tetrahydro-naphthalen-1-yl]-urea] | < 10 | < 10
Cc1ccc(-n2nc(C(C)(C)C)cc2NC(=O)N[C@H]2CC[C@@H](Oc3ccc4nnc(CCN5CCN(C)CC5)n4c3)c3ccccc32)cc1 [Example 2, 1-(5-tert-Butyl-2-p-tolyl-2H-pyrazol-3-yl)-3-((1S,4R)-4-{3-[2-(4-methyl-piperazin-1-yl)-ethyl]-[1,2,4]triazolo[4,3-a]pyridin-6-yloxy}-1,2,3,4-tetrahydro-naphthalen-1-yl)-urea formate salt] | < 10 | 10 to 100
CC(C)(C)c1cc(NC(=O)N[C@H]2CC[C@@H](Oc3ccc4nnc(N5CCCCC5)n4c3)c3ccccc32)n(-c2cccc(COCCO)c2)n1 [Example 48, 1-{5-tert-Butyl-2-[3-(2-hydroxy-ethoxymethyl)-phenyl]-2H-pyrazol-3-yl}-3-[(1S,4R)-4-(3-piperidin-1-yl-[1,2,4]triazolo[4,3-a]pyridin-6-yloxy)-1,2,3,4-tetrahydro-naphthalen-1-yl]-urea] | < 10 | < 10
CN(C)CCCn1cc(-n2nc(C(C)(C)C)cc2NC(=O)N[C@H]2CC[C@@H](Oc3ccc4nnc(N5CCCCC5)n4c3)c3ccccc32)cn1 [Example 113, 1-[3-tert-Butyl-1′-(3-dimethylamino-propyl)-1′H-[1,4′]bipyrazolyl-5-yl]-3-[(1S,4R)-4-(3-piperidin-1-yl-[1,2,4]triazolo[4,3-a]pyridin-6-yloxy)-1,2,3,4-tetrahydro-naphthalen-1-yl]-urea formate salt] | < 10 | < 10
C[C@@H]1CCC[C@H](C)N1c1nnc2ccc(O[C@@H]3CC[C@H](NC(=O)Nc4cc(F)cc(N5CCOCC5)c4)c4ccccc43)cn12 [Example 115, 1-{(1S,4R)-4-[3-((2S,6R)-2,6-Dimethyl-piperidin-1-yl)-[1,2,4]triazolo[4,3-a]pyridin-6-yloxy]-1,2,3,4-tetrahydro-naphthalen-1-yl}-3-(3-fluoro-5-morpholin-4-yl-phenyl)-urea] | < 10 | < 10
Cc1ccc(-n2nc(C(C)(C)C)cc2NC(=O)N[C@H]2CC[C@@H](Oc3ccc4nnc(N5CCC(CO)CC5)n4c3)c3ccccc32)cc1 [Example 54, 1-(5-tert-Butyl-2-p-tolyl-2H-pyrazol-3-yl)-3-{(1S,4R)-4-[3-(4-hydroxymethyl-piperidin-1-yl)-[1,2,4]triazolo[4,3-a]pyridin-6-yloxy]-1,2,3,4-tetrahydro-naphthalen-1-yl}-urea] | < 10 | < 10

Continued, in another order:

IC50 (p38alpha) [nM] | Compound | IC50 [1] [nM]
< 10 | Cc1ccc(-n2nc(C(C)(C)C)cc2NC(=O)N[C@H]2CC[C@@H](Oc3ccc4nnc([C@H]5CCCN5)n4c3)c3ccccc32)cc1 [Example 12, 1-(5-tert-Butyl-2-p-tolyl-2H-pyrazol-3-yl)-3-[(1S,4R)-4-((R)-3-pyrrolidin-2-yl-[1,2,4]triazolo[4,3-a]pyridin-6-yloxy)-1,2,3,4-tetrahydro-naphthalen-1-yl]-urea] | < 10
< 10 | Cc1ccc(-n2nc(C(C)(C)C)cc2NC(=O)N[C@H]2CC[C@@H](Oc3ccc4nnc([C@H]5CCCN(C)C5)n4c3)c3ccccc32)cc1 [Example 88, 1-(5-tert-Butyl-2-p-tolyl-2H-pyrazol-3-yl)-3-{(1S,4R)-4-[3-((S)-1-methyl-piperidin-3-yl)-[1,2,4]triazolo[4,3-a]pyridin-6-yloxy]-1,2,3,4-tetrahydro-naphthalen-1-yl}-urea] | < 10
< 10 | Cc1ccc(-n2nc(C(C)(C)C)cc2NC(=O)N[C@H]2CC[C@@H](Oc3ccc4nnc([C@@H]5CCCCN5C)n4c3)c3ccccc32)cc1 [Example 62, 1-(5-tert-Butyl-2-p-tolyl-2H-pyrazol-3-yl)-3-{(1S,4R)-4-[3-((S)-1-methyl-piperidin-2-yl)-[1,2,4]triazolo[4,3-a]pyridin-6-yloxy]-1,2,3,4-tetrahydro-naphthalen-1-yl}-urea] | < 10
< 10 | Cc1ccc(-n2nc(C(C)(C)C)cc2NC(=O)N[C@H]2CC[C@@H](Oc3ccc4nnc([C@@H]5CCCN5CCCO)n4c3)c3ccccc32)cc1 [Example 84, 1-(5-tert-Butyl-2-p-tolyl-2H-pyrazol-3-yl)-3-((1S,4R)-4-{3-[(S)-1-(3-hydroxy-propyl)-pyrrolidin-2-yl]-[1,2,4]triazolo[4,3-a]pyridin-6-yloxy}-1,2,3,4-tetrahydro-naphthalen-1-yl)-urea] | < 10
< 10 | Cc1ccc(-n2nc(C(C)(C)C)cc2NC(=O)N[C@H]2CC[C@@H](Oc3ccc4nnc(CCN5CCCC5)n4c3)c3ccccc32)cc1 [Example 1, 1-(5-tert-Butyl-2-p-tolyl-2H-pyrazol-3-yl)-3-{(1S,4R)-4-[3-(2-pyrrolidin-1-yl-ethyl)-[1,2,4]triazolo[4,3-a]pyridin-6-yloxy]-1,2,3,4-tetrahydro-naphthalen-1-yl}-urea] | 10 to 100
< 10 | Cc1ccc(-n2nc(C(C)(C)C)cc2NC(=O)N[C@H]2CC[C@@H](Oc3ccc4nnc(C(C)(C)N5CCCC5)n4c3)c3ccccc32)cc1 [Example 80, 1-(5-tert-Butyl-2-p-tolyl-2H-pyrazol-3-yl)-3-{(1S,4R)-4-[3-(1-methyl-1-pyrrolidin-1-yl-ethyl)-[1,2,4]triazolo[4,3-a]pyridin-6-yloxy]-1,2,3,4-tetrahydro-naphthalen-1-yl}-urea] | < 10
< 10 | Cc1ccc(-n2nc(C(C)(C)C)cc2NC(=O)N[C@H]2CC[C@@H](Oc3ccc4nnc(N5CCC[C@H]5CO)n4c3)c3ccccc32)cc1 [Example 28, 1-(5-tert-Butyl-2-p-tolyl-2H-pyrazol-3-yl)-3-{(1S,4R)-4-[3-((S)-2-hydroxymethyl-pyrrolidin-1-yl)-[1,2,4]triazolo[4,3-a]pyridin-6-yloxy]-1,2,3,4-tetrahydro-naphthalen-1-yl}-urea] | < 10
< 10 | CCOC(=O)c1cccc(-n2nc(C(C)(C)C)cc2NC(=O)N[C@H]2CC[C@@H](Oc3ccc4nnc([C@@H]5CCCN5C)n4c3)c3ccccc32)c1 [Example 30, 3-[3-tert-Butyl-5-(3-{(1S,4R)-4-[3-((S)-1-methyl-pyrrolidin-2-yl)-[1,2,4]triazolo[4,3-a]pyridin-6-yloxy]-1,2,3,4-tetrahydro-naphthalen-1-yl}-ureido)-pyrazol-1-yl]-benzoic acid ethyl ester] | < 10
< 10 | Cc1ccc(-n2nc(C(C)(C)C)cc2NC(=O)N[C@H]2CC[C@@H](Oc3ccc4nnc(N5CCCC[C@H]5C)n4c3)c3ccccc32)cc1 [Example 82, 1-(5-tert-Butyl-2-p-tolyl-2H-pyrazol-3-yl)-3-{(1S,4R)-4-[3-((R)-2-methyl-piperidin-1-yl)-[1,2,4]triazolo[4,3-a]pyridin-6-yloxy]-1,2,3,4-tetrahydro-naphthalen-1-yl}-urea] | < 10
< 10 | Cc1ccc(-n2nc(C(C)(C)C)cc2NC(=O)N[C@H]2CC[C@@H](Oc3ccc4nnc(N5CCCC[C@@H]5C)n4c3)c3ccccc32)cc1 [Example 81, 1-(5-tert-Butyl-2-p-tolyl-2H-pyrazol-3-yl)-3-{(1S,4R)-4-[3-((S)-2-methyl-piperidin-1-yl)-[1,2,4]triazolo[4,3-a]pyridin-6-yloxy]-1,2,3,4-tetrahydro-naphthalen-1-yl}-urea] | < 10
